Assay results published in patent publication US6972286B2, “Oxazolidinones having a benzannulated 6- or 7-membered heterocycle” (Pharmacia and Upjohn Company, priority 2000, dated 2005).
Converted amounts (≈) assume the structure as drawn.

How the values were obtained:
Streptococcus pneumoniae = test: Minimum inhibitory concentration (MIC) by agar dilution; assay type: cell-based; conditions: in vitro, agar dilution (NCCLS 1993), Streptococcus pneumoniae strain SPNE 9912; read-out: Antibacterial Activity Minimum Inhibitory Concentration SPNE 9912
Excerpt: The oxazolidinone antibacterial agents of this invention have useful activity against a variety of organisms. The in vitro activity of compounds of this invention can be assessed by standard testing procedures such as the determination of minimum inhibitory concentration (MIC) by agar dilution as described in “Approved Standard. Methods for Dilution Antimicrobial Susceptibility Tests for Bacteria That Grow Aerobically”, 3rd. ed., published 1993 by the National Committee for Clinical Laboratory Standards, Villanova, Pa. USA.

**Q.** With `CC(=O)NC[C@H]1CN(c2ccc3c(c2)CCSC3)C(=O)O1` [Example 10, (−)-N-[[(5S)-3-(3,4-Dihydro-1H-2-benzothiopyran-6-yl)-2-oxo-5-oxazolidinyl]methyl]acetamide] as the compound, how does the MIC (Streptococcus pneumoniae) read?
**A.** 1 µg/mL (≈ 3.26 µM)

**Q.** What about the melting point of the same compound?
**A.** 112 to 114 °C (dec.)

**Q.** What does the source list for `CC(=S)NC[C@H]1CN(c2ccc3c(c2)CCSC3)C(=O)O1` [Example 11, (+)-N-[[(5S)-3-(3,4-Dihydro-1H-2-benzothiopyran-6-yl)-2-oxo-5-oxazolidinyl]methyl]ethanethioamide]?
**A.** MIC (Streptococcus pneumoniae): 0.25 µg/mL (≈ 0.775 µM); melting point: 112 to 114 °C (dec.)

**Q.** With `CC(=S)NC[C@H]1CN(c2ccc3c(c2)CCS(=O)(=O)C3)C(=O)O1` [Example 12, (+)-N-[[(5S)-3-(3,4-Dihydro-2,2-dioxido-1H-2-benzothiopyran-6-yl)-2-oxo-5-oxazolidinyl]methyl]ethanethioamide] as the compound, how does the MIC (Streptococcus pneumoniae) read?
**A.** 1 µg/mL (≈ 2.82 µM)

**Q.** What about the melting point of the same compound?
**A.** 187 °C (dec.)

**Q.** With `CC(=S)NC[C@H]1CN(c2ccc3c(c2)COCC3)C(=O)O1` [Example 13, (+)-N-[[(5S)-3-(3,4-Dihydro-1H-2-benzopyran-7-yl)-2-oxo-5-oxazolidinyl]methyl]ethanethioamide] as the compound, how does the MIC (Streptococcus pneumoniae) read?
**A.** 1 µg/mL (≈ 3.26 µM)

**Q.** And the melting point?
**A.** 165 °C (dec.)

**Q.** For `CSc1nnc(N2CCc3ccc(N4C[C@H](CNC(C)=O)OC4=O)cc3CC2)s1` [Example 43, N-({(5S)-3-[3-(5-Methylthio-1,3,4-thiadiazol-2-yl)-1,2,4,5-tetrahydro-1H-3-benzazepin-7-yl]-2-oxo-1,3-oxazolidin-5-yl}methyl)acetamide], which MIC (Streptococcus pneumoniae) is on record?
**A.** 0.5 µg/mL (≈ 1.15 µM)

**Q.** Which MIC (Streptococcus pneumoniae) does the source give for `CC(=O)NC[C@H]1CN(c2ccc3c(c2)CCN(c2nnc(C)s2)CC3)C(=O)O1` [Example 44, N-({(5S)-3-[3-(5-Methyl-1,3,4-thiadiazol-2-yl)-1,2,4,5-tetrahydro-1H-3-benzazepin-7-yl]-2-oxo-1,3-oxazolidin-5-yl}methyl)acetamide] here?
**A.** 1 µg/mL (≈ 2.49 µM)

**Q.** For `CC(=O)NC[C@H]1CN(c2ccc3c(c2)CCN(c2nnc(NC=O)s2)CC3)C(=O)O1` [Example 45, N-[((5S)-3-{3-[5-(Formylamino)-1,3,4-thiadiazol-2-yl]-1,2,4,5-tetrahydro-1H-3-benzazepin-7-yl}-2-oxo-1,3-oxazolidin-5-yl)methyl]acetamide], which MIC (Streptococcus pneumoniae) is on record?
**A.** 0.5 µg/mL (≈ 1.16 µM)

**Q.** Which MIC (Streptococcus pneumoniae) does the source give for `CC(=O)NC[C@H]1CN(c2ccc3c(c2)CCN(c2nnc(NC(=O)CO)s2)CC3)C(=O)O1` [Example 46, N-[5-(7-{(5S)-5-[(Acetylamino)methyl]-2-oxo-1,3-oxazolidin-3-yl}-1,2,4,5-tetrahydro-3H-3-benzazepin-3-yl)-1,3,4-thiadiazol-2-yl]-2-hydroxyacetamide] here?
**A.** 0.5 µg/mL (≈ 1.09 µM)

**Q.** With `CC(=O)NC[C@H]1CN(c2ccc3c(c2)CCSCC3)C(=O)O1` [Example 47, N-[[(5S)-2-Oxo-3-(1,2,4,5-tetrahydro-3-benzothiepin-7-yl)-5-oxazolidinyl]methyl]acetamide] as the compound, how does the MIC (Streptococcus pneumoniae) read?
**A.** 2 µg/mL (≈ 6.24 µM)

**Q.** For `CC(=O)NC[C@H]1CN(c2ccc3c(c2)CCS(=O)(=O)CC3)C(=O)O1` [Example 48, N-[[(5S)-2-Oxo-3-(1,2,4,5-tetrahydro-3,3-dioxido-3-benzothiepin-7-yl)-5-oxazolidinyl]methyl]acetamide], which MIC (Streptococcus pneumoniae) is on record?
**A.** 8 µg/mL (≈ 22.7 µM)

**Q.** Which MIC (Streptococcus pneumoniae) does the source give for `CC(=S)NC[C@H]1CN(c2ccc3c(c2)CCSCC3)C(=O)O1` [Example 49, N-[[(5S)-2-Oxo-3-(1,2,4,5-tetrahydro-3-benzothiepin-7-yl)-5-oxazolidinyl]methyl]ethanethioamide] here?
**A.** 0.5 µg/mL (≈ 1.49 µM)

**Q.** Which MIC (Streptococcus pneumoniae) does the source give for `CC(=S)NC[C@H]1CN(c2ccc3c(c2)CCS(=O)(=O)CC3)C(=O)O1` [Example 50, N-[[(5S)-2-Oxo-3-(1,2,4,5-tetrahydro-3,3-dioxido-3-benzothiepin-7-yl)-5-oxazolidinyl]methyl]ethanethioamide] here?
**A.** 1 µg/mL (≈ 2.71 µM)
